Measured values published in ChEMBL document CHEMBL1135758, “Toward a pharmacophore for drugs inducing the long QT syndrome: insights from a CoMFA study of HERG K(+) channel blockers” (J Med Chem, 2002).

Experiments:
[1] = target: T1, Voltage-gated inwardly rectifying potassium channel KCNH2 (Homo sapiens, UniProt Q12809); test: K+ channel blocking activity in Chinese hamster ovary cells expressing HERG Kv11.1; format: functional, cell-based
[2] = target: T1, Voltage-gated inwardly rectifying potassium channel KCNH2; test: (§1) K+ channel blocking activity in human embryonic kidney cells expressing HERG Kv11.1
[3] = target: T1, Voltage-gated inwardly rectifying potassium channel KCNH2; test: as §1; format: functional, cell-based

T1 sequence (Q12809 whole entry): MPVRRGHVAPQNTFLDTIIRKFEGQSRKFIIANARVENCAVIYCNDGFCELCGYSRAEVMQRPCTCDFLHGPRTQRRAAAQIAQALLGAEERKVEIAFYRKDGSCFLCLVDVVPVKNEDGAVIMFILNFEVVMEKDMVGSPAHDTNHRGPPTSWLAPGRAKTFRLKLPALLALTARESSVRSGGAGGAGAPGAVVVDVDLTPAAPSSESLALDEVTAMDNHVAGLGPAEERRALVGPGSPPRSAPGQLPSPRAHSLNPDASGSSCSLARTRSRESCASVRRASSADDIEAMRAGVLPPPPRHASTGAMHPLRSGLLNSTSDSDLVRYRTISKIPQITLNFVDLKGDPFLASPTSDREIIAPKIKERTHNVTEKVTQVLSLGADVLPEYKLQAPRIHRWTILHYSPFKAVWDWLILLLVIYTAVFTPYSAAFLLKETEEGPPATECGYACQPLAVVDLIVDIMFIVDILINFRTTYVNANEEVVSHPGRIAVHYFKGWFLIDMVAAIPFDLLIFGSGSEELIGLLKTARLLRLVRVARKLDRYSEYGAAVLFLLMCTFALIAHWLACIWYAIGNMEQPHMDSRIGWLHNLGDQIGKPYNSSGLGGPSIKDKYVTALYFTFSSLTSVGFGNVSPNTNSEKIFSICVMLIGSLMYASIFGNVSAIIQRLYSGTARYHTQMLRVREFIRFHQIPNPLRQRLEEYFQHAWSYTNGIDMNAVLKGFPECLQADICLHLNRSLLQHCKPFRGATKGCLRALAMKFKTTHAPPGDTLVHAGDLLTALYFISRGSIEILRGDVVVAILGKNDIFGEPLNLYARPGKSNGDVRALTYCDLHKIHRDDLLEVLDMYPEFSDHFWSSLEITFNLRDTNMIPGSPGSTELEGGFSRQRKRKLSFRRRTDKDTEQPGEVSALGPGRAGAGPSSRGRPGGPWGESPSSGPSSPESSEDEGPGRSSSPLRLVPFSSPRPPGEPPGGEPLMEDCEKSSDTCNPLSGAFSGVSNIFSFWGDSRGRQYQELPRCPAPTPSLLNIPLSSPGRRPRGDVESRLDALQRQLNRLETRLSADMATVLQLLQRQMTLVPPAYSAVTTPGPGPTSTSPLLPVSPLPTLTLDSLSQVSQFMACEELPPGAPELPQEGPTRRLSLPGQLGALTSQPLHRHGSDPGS

With `CN1CCN(CCCCN2C(=O)CN(/N=C/c3ccc(-c4ccc(Cl)cc4)o3)C2=O)CC1` [AZIMILIDE] the IC50 [1] was 0.56 µM.

Work on `COc1c(N2CCNC(C)C2)c(F)cc2c(=O)c(C(=O)O)cn(C3CC3)c12` (centres undefined) [GATIFLOXACIN] yielded an IC50 [1] of 130 µM.

In the case of `CN(c1nccc(=O)[nH]1)C1CCN(c2nc3ccccc3n2Cc2ccc(F)cc2)CC1` [MIZOLASTINE], the IC50 [2] is reported as 0.35 µM.

Work on `C[C@@H]1CN(c2c(F)c(N)c3c(=O)c(C(=O)O)cn(C4CC4)c3c2F)C[C@H](C)N1` [SPARFLOXACIN] yielded an IC50 [3] of 34.4 µM.
